Measurements taken from ChEMBL document CHEMBL1201862, “PubChem BioAssay data set” (2004).
The source made the active and inactive calls.

What was measured:
H9c2 = assay: cells; type: functional, cell-based; details: Rattus norvegicus, H9c2, Myocardium;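 note: confirmatory concentration-response retest of ultra-high-throughput screening hits for modulation of myocardial damage; cell death induced by hydrogen peroxide oxidative stress; compound pretreatment for 60 min then peroxide exposure for 2 h; potency is for protecting the cells against peroxide damage rather than for killing them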
Melanocortin receptor 4 = Melanocortin receptor 4 (Homo sapiens, UniProt P32245); assay: inhibitors of MC4R cAMP signaling – cell-based, TR-FRET, biased antagonists, dose response (AID 602298); type: functional;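 note: antagonist potency against agonist-stimulated cAMP production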
[1] = cAMP pathway inhibition in counterscreen cell line – TR-FRET cAMP detection, counter-screen for MC4R biased antagonist project, dose response (AID 602305); type: functional, cell-based;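 note: U2OS cells stimulated with forskolin near its EC80 as the cAMP inducer; potency is for inhibition of forskolin-stimulated cAMP signaling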
[2] = target: Tyrosine-protein kinase Lck (Homo sapiens, UniProt P06239); type: functional;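 note: lck was assayed as one member of a kinase panel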
[3] = target: Tyrosine-protein kinase BTK (Homo sapiens, UniProt Q06187); type: functional
[4] = target: Serine/threonine-protein kinase N2 (Homo sapiens, UniProt Q16513); type: functional
[5] = target: Serine/threonine-protein kinase TAO1 (Homo sapiens, UniProt Q7L7X3); type: functional
[6] = target: Tyrosine-protein kinase ABL1 (Homo sapiens, UniProt P00519); type: functional
[7] = target: Vascular endothelial growth factor receptor 2 (Homo sapiens, UniProt P35968); type: functional
Misshapen-like kinase 1 = Misshapen-like kinase 1 (Homo sapiens, UniProt Q8N4C8); type: functional;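 note: kinome panel screen with MINK as the panel member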
Focal adhesion kinase 1 = Focal adhesion kinase 1 (Homo sapiens, UniProt Q05397); type: functional;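 note: measured as one member of a kinome panel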
[8] = target: Tyrosine-protein kinase Fyn (Homo sapiens, UniProt P06241); type: functional
[9] = target: Mitogen-activated protein kinase kinase kinase kinase 4 (Homo sapiens, UniProt O95819); type: functional
[10] = target: Serine/threonine-protein kinase pim-1 (Homo sapiens, UniProt P11309); type: functional
[11] = target: Cell division cycle 7-related protein kinase (Homo sapiens, UniProt O00311); type: functional;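 note: value obtained from a kinome-wide kinase panel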
[12] = target: Homeodomain-interacting protein kinase 2 (Homo sapiens, UniProt Q9H2X6); type: functional;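 note: measured within a kinome-wide kinase profiling panel, HIPK2 being one panel member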
[13] = target: MAP kinase-interacting serine/threonine-protein kinase 2 (Homo sapiens, UniProt Q9HBH9); type: functional
[14] = target: Interleukin-1 receptor-associated kinase 4 (Homo sapiens, UniProt Q9NWZ3); type: functional
[15] = target: Glycogen synthase kinase-3 beta (Homo sapiens, UniProt P49841); type: functional;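 note: value comes from a broad kinome profiling panel, with GSK3B as the panel member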
[16] = target: cAMP-dependent protein kinase catalytic subunit alpha (Homo sapiens, UniProt P17612); type: functional
[17] = target: Dual specificity protein kinase CLK4 (Homo sapiens, UniProt Q9HAZ1); type: functional
[18] = target: Protein disulfide-isomerase (Homo sapiens, UniProt P07237); assay: inhibition of PDI-driven insulin aggregation – biochemical, turbidity, absorbance, cherry-picked samples, dose response (AID 602350); type: functional
[19] = target: 5'-AMP-activated protein kinase catalytic subunit alpha-1 (Homo sapiens, UniProt Q13131); type: functional
[20] = target: ALK tyrosine kinase receptor (Homo sapiens, UniProt Q9UM73); type: functional;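 note: ALK tested as one member of a kinase panel screen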
[21] = target: Tyrosine-protein kinase HCK (Homo sapiens, UniProt P08631); assay: Navigating the Kinome. Panel member name: HCK; type: functional
[22] = target: Serine/threonine-protein kinase D3 (Homo sapiens, UniProt O94806); type: functional;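 note: determined within a kinase panel screen, with PRKCN as the panel member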
[23] = target: Death-associated protein kinase 3 (Homo sapiens, UniProt O43293); type: functional;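 note: measured as one member of a kinome-wide profiling panel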
LIM domain kinase 1 = LIM domain kinase 1 (Homo sapiens, UniProt P53667); assay: Navigating the Kinome. Panel member name: LIMK1; type: functional
[24] = target: Proto-oncogene tyrosine-protein kinase ROS (Homo sapiens, UniProt P08922); type: functional;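 note: ROS1 tested as one member of a kinome-wide kinase panel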
[25] = target: Calcium/calmodulin-dependent protein kinase kinase 2 (Homo sapiens, UniProt Q96RR4); assay: Navigating the Kinome. Panel member name: CAMKK2; type: functional
[26] = target: Glycogen synthase kinase-3 alpha (Homo sapiens, UniProt P49840); type: functional;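 note: GSK3A result taken from a broad kinome-wide kinase panel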
[27] = target: Mitogen-activated protein kinase kinase kinase kinase 2 (Homo sapiens, UniProt Q12851); type: functional;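 note: measured as one member of a kinome-wide kinase panel, with MAP4K2 as the panel entry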
[28] = target: Platelet-derived growth factor receptor beta (Homo sapiens, UniProt P09619); type: functional;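 note: value comes from a kinome panel, with PDGFRB tested as one panel member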
[29] = target: Cyclin-dependent kinase 5 (Homo sapiens, UniProt Q00535); type: functional;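 note: CDK5 measured as one member of a kinase profiling panel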
[30] = target: T1, cAMP-dependent protein kinase catalytic subunit PRKX (Homo sapiens, UniProt P51817); type: functional
T1 sequence (P51817 whole entry): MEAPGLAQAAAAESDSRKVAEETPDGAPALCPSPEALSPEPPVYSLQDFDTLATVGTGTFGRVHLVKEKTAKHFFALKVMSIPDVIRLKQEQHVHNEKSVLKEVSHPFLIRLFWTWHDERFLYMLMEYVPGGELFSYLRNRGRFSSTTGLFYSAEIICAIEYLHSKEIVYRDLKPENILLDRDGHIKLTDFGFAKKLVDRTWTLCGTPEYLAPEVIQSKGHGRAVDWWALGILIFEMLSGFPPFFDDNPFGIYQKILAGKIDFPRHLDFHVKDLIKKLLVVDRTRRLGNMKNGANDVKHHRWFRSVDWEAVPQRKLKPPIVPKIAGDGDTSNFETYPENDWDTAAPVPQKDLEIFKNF

[31] = target: Maternal embryonic leucine zipper kinase (Homo sapiens, UniProt Q14680); type: functional
[32] = target: Platelet-derived growth factor receptor alpha (Homo sapiens, UniProt P16234); assay: Navigating the Kinome. Panel member name: PDGFRA; type: functional
Aurora kinase B = Aurora kinase B (Homo sapiens, UniProt Q96GD4); type: functional
[33] = target: Rho-associated protein kinase 1 (Homo sapiens, UniProt Q13464); type: functional;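 note: measured within a broad kinome-wide panel profiling many kinases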
[34] = target: Cyclin-dependent kinase 7 (Homo sapiens, UniProt P50613); type: functional;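 note: value comes from a kinome-wide kinase profiling panel in which CDK7 is one member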
[35] = target: Vascular endothelial growth factor receptor 1 (Homo sapiens, UniProt P17948); type: functional;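 note: measured within a kinome-wide profiling panel, FLT1 as the panel member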
[36] = target: Cyclin-dependent kinase 9 (Homo sapiens, UniProt P50750); type: functional;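 note: value from the CDK9 entry of a kinome-spanning kinase panel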
[37] = target: Macrophage-stimulating protein receptor (Homo sapiens, UniProt Q04912); assay: Navigating the Kinome. Panel member name: MST1R; type: functional
[38] = target: Leukocyte tyrosine kinase receptor (Homo sapiens, UniProt P29376); assay: Navigating the Kinome. Panel member name: LTK; type: functional
[39] = target: Serine/threonine-protein kinase 3 (Homo sapiens, UniProt Q13188); type: functional;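 note: measured as one member of a kinome-wide kinase panel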
Chain of Serine/threonine-protein kinase 3 (Q13188 whole entry): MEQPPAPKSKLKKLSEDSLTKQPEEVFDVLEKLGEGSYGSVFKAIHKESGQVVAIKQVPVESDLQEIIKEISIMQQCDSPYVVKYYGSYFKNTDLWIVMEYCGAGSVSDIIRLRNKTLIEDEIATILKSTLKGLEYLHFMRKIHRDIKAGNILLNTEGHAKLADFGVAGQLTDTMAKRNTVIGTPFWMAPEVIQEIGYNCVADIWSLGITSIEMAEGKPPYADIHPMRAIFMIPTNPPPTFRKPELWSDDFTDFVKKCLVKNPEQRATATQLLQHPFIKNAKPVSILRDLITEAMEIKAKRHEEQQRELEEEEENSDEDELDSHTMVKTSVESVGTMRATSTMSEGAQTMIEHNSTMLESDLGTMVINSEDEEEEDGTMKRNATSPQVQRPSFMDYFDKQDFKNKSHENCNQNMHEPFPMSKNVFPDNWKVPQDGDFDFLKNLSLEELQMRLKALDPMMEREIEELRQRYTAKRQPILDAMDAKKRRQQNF

Chain of Vascular endothelial growth factor receptor 2 (P35968 whole entry): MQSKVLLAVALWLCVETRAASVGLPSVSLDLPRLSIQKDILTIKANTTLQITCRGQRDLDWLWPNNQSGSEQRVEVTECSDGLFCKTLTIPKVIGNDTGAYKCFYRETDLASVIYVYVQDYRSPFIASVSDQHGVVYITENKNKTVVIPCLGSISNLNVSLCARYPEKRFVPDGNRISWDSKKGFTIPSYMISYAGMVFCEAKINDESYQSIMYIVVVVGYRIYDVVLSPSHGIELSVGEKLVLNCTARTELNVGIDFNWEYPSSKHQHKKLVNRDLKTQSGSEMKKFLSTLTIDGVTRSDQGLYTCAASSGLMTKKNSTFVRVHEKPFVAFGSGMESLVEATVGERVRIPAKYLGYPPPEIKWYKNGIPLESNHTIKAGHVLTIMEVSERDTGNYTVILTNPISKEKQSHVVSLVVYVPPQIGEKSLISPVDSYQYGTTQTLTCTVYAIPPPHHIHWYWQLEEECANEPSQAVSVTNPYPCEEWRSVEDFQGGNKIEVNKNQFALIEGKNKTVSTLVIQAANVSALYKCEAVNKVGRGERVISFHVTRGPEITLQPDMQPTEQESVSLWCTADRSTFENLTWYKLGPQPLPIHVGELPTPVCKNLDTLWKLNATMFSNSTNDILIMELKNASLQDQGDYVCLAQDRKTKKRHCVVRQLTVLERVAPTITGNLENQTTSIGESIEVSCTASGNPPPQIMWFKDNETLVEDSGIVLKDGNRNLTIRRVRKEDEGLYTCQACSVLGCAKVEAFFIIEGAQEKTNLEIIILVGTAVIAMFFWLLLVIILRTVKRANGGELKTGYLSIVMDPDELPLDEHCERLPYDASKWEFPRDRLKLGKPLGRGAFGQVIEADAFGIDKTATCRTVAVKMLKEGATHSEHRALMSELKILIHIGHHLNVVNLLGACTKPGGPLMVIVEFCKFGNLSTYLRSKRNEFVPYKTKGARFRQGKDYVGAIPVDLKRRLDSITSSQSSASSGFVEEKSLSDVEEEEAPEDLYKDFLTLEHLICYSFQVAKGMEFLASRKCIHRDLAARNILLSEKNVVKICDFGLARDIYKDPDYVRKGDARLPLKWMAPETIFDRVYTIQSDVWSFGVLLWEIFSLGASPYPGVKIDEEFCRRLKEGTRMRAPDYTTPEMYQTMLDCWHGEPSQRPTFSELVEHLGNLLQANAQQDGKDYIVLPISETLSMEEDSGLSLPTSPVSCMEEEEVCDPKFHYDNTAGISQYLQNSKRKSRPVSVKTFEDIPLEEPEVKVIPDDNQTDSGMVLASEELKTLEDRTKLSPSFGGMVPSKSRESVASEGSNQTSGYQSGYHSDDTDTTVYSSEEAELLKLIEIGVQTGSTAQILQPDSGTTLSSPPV
Chain of Protein disulfide-isomerase (P07237 whole entry): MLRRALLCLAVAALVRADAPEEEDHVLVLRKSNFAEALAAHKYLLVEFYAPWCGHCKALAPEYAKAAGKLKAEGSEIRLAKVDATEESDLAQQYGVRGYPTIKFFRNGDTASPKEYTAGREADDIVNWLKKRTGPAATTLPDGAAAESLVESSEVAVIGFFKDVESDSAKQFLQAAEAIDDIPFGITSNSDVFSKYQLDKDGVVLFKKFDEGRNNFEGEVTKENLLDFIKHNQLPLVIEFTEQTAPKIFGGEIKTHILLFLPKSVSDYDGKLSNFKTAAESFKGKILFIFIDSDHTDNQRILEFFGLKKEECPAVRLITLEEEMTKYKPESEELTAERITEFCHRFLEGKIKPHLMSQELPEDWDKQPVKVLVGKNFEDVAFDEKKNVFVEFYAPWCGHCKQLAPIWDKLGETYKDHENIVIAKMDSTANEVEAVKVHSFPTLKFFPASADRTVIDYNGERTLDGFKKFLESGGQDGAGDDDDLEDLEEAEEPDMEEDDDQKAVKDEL
Chain of Serine/threonine-protein kinase pim-1 (P11309 whole entry): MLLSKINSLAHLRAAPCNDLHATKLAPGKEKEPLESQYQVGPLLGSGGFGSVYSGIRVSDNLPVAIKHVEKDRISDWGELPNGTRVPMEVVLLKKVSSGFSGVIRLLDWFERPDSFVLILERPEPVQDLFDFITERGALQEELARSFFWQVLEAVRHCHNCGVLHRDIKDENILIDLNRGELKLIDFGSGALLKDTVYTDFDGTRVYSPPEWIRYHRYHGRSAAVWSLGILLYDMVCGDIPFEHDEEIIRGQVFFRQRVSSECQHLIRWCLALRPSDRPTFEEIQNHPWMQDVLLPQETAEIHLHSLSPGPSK
Chain of LIM domain kinase 1 (P53667 whole entry, the tested form may be a part): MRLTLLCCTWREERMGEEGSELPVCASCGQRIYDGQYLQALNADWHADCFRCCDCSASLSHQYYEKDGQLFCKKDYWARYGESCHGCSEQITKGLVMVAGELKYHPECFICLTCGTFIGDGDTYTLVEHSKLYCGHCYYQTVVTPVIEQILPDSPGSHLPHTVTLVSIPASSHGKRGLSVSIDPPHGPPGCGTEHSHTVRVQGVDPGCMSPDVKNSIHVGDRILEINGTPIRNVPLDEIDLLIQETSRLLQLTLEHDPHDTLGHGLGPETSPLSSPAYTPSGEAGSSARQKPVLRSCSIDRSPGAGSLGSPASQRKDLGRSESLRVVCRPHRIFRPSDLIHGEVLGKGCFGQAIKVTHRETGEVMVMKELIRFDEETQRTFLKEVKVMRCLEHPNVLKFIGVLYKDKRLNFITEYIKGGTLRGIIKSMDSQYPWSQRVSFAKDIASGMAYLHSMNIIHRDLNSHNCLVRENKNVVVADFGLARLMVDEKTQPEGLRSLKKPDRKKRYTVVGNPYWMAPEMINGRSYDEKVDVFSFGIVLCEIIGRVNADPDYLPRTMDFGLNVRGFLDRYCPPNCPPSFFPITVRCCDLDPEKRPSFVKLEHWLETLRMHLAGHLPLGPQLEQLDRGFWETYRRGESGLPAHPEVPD
Chain of Tyrosine-protein kinase Lck (P06239 whole entry): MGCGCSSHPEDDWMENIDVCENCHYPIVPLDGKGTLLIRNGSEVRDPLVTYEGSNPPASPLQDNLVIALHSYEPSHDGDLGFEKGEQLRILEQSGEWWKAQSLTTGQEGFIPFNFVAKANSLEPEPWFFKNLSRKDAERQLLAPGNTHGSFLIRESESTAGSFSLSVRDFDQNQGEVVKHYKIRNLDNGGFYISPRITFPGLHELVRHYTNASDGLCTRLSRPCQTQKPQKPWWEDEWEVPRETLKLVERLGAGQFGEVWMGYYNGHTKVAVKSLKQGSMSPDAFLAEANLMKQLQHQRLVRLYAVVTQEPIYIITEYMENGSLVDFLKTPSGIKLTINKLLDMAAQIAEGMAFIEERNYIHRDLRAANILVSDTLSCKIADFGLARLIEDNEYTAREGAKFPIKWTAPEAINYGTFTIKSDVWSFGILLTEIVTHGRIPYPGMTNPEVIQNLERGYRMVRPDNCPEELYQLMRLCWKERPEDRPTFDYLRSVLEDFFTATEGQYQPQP
Chain of Platelet-derived growth factor receptor alpha (P16234 whole entry): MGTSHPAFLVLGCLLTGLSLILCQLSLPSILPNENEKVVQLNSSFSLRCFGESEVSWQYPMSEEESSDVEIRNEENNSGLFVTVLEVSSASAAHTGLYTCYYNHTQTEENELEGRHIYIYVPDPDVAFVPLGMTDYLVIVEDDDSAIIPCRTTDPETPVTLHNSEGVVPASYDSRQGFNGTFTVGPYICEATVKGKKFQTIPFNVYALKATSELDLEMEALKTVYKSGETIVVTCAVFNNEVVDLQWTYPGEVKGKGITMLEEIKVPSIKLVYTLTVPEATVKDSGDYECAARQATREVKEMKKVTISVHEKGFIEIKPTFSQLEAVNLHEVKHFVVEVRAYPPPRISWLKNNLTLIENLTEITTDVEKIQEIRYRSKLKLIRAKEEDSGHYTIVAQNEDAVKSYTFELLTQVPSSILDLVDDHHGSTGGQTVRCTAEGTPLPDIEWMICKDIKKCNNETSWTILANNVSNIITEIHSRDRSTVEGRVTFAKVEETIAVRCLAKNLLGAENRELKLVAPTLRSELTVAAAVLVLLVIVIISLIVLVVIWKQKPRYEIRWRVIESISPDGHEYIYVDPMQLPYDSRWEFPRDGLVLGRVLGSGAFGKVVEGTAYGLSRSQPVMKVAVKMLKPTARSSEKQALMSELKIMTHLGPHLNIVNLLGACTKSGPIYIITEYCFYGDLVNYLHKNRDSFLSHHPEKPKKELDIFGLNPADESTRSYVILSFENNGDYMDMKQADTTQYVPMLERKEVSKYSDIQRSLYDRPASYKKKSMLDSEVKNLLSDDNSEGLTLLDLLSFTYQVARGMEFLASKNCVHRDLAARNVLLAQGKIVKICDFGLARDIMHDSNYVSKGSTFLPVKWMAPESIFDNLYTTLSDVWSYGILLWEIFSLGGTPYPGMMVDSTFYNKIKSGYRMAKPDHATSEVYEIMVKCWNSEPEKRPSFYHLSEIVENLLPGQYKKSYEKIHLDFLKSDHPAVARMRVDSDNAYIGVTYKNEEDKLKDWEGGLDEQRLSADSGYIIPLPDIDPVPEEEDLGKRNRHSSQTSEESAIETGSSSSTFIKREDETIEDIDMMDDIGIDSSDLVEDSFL

CS(=O)(=O)Nc1cccc(NC(=O)c2cccc3c(-c4cccc(C(N)=O)c4)coc23)c1
inactive: IC50 (H9c2) > 79 µM | IC50 (Melanocortin receptor 4) > 64.6 µM | IC50 [1] > 64.6 µM

CN(C)c1c(NC(=O)c2c(F)cccc2F)cccc1-c1nc2sccn2c1-c1ccnc(Nc2cccc(N3CCOCC3)c2)n1
inactive: Ki [3] > 6.31 µM | Ki [4] > 5.01 µM | Ki [5] > 6.31 µM | Ki (Misshapen-like kinase 1) > 5.01 µM | Ki (Focal adhesion kinase 1) > 6.31 µM | Ki [8] > 6.31 µM
active: Ki [2] 0.501 µM | Ki [6] 0.501 µM | Ki [7] 2 µM | Ki [9] 1.26 µM

Cc1cccc(CNc2cc(-c3c[nH]c4ncccc34)ncn2)c1
active: Ki [10] 0.126 µM | Ki [11] 0.00251 µM | Ki [12] 0.158 µM | Ki [13] 0.158 µM | Ki [14] 0.501 µM | Ki [15] 0.00794 µM | Ki [16] 0.158 µM | Ki [17] 0.00631 µM

CCN1C[C@]2(COC(=O)c3ccccc3N)CC[C@H](OC)C34[C@@H]5C[C@H]6[C@H](OC)[C@@H]5[C@](O)(C[C@@H]6OC)[C@@](O)([C@H]13)[C@@H](OC)[C@@H]42
active: AC50 [18] 19.5 µM

CCN1CCN(Cc2ccc(NC(=O)Nc3ccc(Oc4cc(NC)ncn4)cc3)cc2C(F)(F)F)CC1 [AST-487]
active: Ki [21] 0.1 µM | Ki [23] 3.98 µM | Ki [24] 2 µM | Ki [25] 0.794 µM | Ki [27] 0.0794 µM | Ki [28] 0.00794 µM | Ki [7] 0.00251 µM | Ki [31] 0.126 µM | Ki [32] 0.0794 µM | Ki [35] 0.0316 µM | Ki [38] 0.631 µM
inactive: Ki [19] > 3.16 µM | Ki [20] > 6.31 µM | Ki [22] > 3.98 µM | Ki (LIM domain kinase 1) > 3.16 µM | Ki [26] > 3.98 µM | Ki [29] > 3.16 µM | Ki [30] > 3.16 µM | Ki (Aurora kinase B) > 3.98 µM | Ki [33] > 3.98 µM | Ki [34] > 5.01 µM | Ki [36] > 1.58 µM | Ki [37] > 3.98 µM | Ki [39] > 2.51 µM
